Laboratory results reported in patent publication EP0454060B1, “3-(Mercaptoalkyl)-quinazoline-2,4(1H,3H)-diones, processes for their preparation, and pharmaceutical compositions” (priority 1990, dated 1991).

How the values were obtained:
[1] = test system: Kontaktüberempfindlichkeit vom verzögerten Typ (Effektor-T-Lymphozyten-Aktivität); test: Percutaneous test for contact hypersensitivity after DNFB immunisation; assay type: in vivo, Meerschweinchen (Albino-Koloniezucht); details: Sensibilisierungsgrad versus control group; 2 mg/kg daily peroral, day +1 to +6; screening values; from 120 stimulatory, below 80 suppressive
From the text: Der Nachweis einer immunregulatorischen Wirksamkeit wurde am Meerschweinchen (Albino-Koloniezucht) und u. a. mit Hilfe folgender Techniken geführt: • Perkutaner Test zum Nachweis einer Kontaktüberempfindlichkeit vom verzögerten Typ (Effektor-T-Lymphozyten-Aktivität), • Takatsy-Test zum Nachweis DNP-spezifischer Serumantikörper (humorale Immunantwort).
Der Nachweis der antiviralen Wirksamkeit erfolgte in vitro an Hühnerembryonalzellen mit Vertretern verschiedener Virusgruppen. 1. Untersuchungen zur immunregulatorischen Wirksamkeit 1.1 Perkutaner Test zum Nachweis einer Kontaktüberempfindlichkeit Die epikutane Applikation von Dinitrofluorbenzol (DNFB) führt beim Meerschweinchen und bei der Maus zur Entwicklung einer verzögerten Überempfindlichkeit, eines Immunstatus, der an die klonale Vermehrung TNP-spezifischer T-Lymphozyten (TDTH-Ly) gebunden ist. Erfolgt nach einer Latenzperiode von mindestens 5 Tagen eine erneute DNFB-Applikation, kommt es zu einer Freisetzung von Lymphokinen durch Reaktion mit den TDTH-Ly dieses Hautbereiches und dadurch zu einer lokal begrenzten Entzündungsreaktion. Sieben Tage nach der Immunisierung mit 1 %igem DNFB wurden die Flanken der Versuchstiere enthaart und durch Aufbringen je eines Tropfens 0,5 %, 0,1 %, 0,05 %, 0,025 % und 0,01 %iger DNFB-Lösung getestet. Die noch positive Konzentration ist dem Grad der Sensibilisierung umgekehrt proportional. Die Testergebnisse ergeben sich aus Stärke und Anzahl der positiven Hautreaktionen, der Stimulierungsindex (SI) aus dem Vergleich der Test- und Kontrolltiere. Die Substanzbehandlung erfolgte peroral. Mittels Schlundsonde wurde eine tägliche Dosis von 2 mg/kg Körpermasse als Suspension in Wasser gegeben. Behandlungsdauer: 1 Tag + 1 (ein Tag nach der Immunisierung) bis +6. Die Kontrolltiere erhielten nur die eingesetzte Lactose. 1.2 Takatsy-Test Nach Immunisierung mit Dinitrofluorbenzol (DNFB) kommt es beim Meerschweinchen auch zur Bildung DNP-spezifischer humoraler Antikörper, die bevorzugt der IgG1-Substanzklasse angehören. 14 Tage nach primärer epikutaner Applikation von DNFB wurde den Versuchstieren Blut durch Herzpunktion entnommen. Die Bestimmung der Antikörperkonzentration erfolgte nach einer von Takatsy beschriebenen Methode (Takatsy, G.: A new method for the preparation of serial dilutions in a quick and accurate way. Kiserletes Orvostudomany 2 (1950) 263 - 396). Als Indikatorzellen wurden TNP-beladene Schaferythrozyten verwendet (Kopplung nach Rittenberg und Pratt; Rittenberg, M. B. and Pratt, K. L.: Antitrinitrophenyl (TNP) plaque assay. Primary response of BALB/c mice to soluble and particulate immunogen. Proc. Soc. exp. Biol. Med., 132 (1969) 575 - 579). 1.3 Ergebnisse Sensibilisierungsgrad (%) und Serumantikörperkonzentration (AK-Titer-Differenz) gegenüber der jeweiligen Kontrollgruppe (Screening-Werte)
Aus den Werten wird deutlich, daß die Verbindungen der allgemeinen Formel I einen gut nachweisbaren Effekt auf die Effektor-T-Lymphozyten-abhängige verzögerte Uberempfindlichkeit haben. Kontaktdermatitis-Werte ab 120 (≙ 20 % Steigerung gegenüber der Kontrolle) bzw. unter 80 werden als Nachweis eines stimulatorischen bzw. suppressorischen Effektes angesehen. Antikörpertiter-Differenzen von >+1 bzw. <-1 verdeutlichen den stimulatorischen bzw. suppressorischen Effekt der Substanzen auf die humorale Immunantwort. 2. Untersuchungen zur immunstimulierenden Wirkung • 2.1 Plaque-Test zum Nachweis von SE-spezifischen IgM- und IgG-PBZ Zur Prüfung immunstimulierender Effekte wurde u. a. auch der Einfluß von Verbindungen der allgemeinen Formel I auf die humorale Immunantwort an Mäusen des Inzuchtstammes CBA und mittels Hämolyse-Plaque-Test (HPT) untersucht. Diese Technik erlaubt die quantitative und getrennte Erfassung IgM- und IgG-Antikörper produzierender Zellen (= Plaque bildende Zellen; PBZ). […]

[2] = test system: SE-spezifischer rosettenbildender Zellen; test: Rosette test (SE-specific rosettes); assay type: in vivo, Maus (Inzuchtstamm CBA); details: oral administration
From the text: Der Nachweis immunstimulierender Effekte wurde weiterhin an der Maus (Inzuchtstamm CBA) und u. a. mit Hilfe folgender Nachweismethoden geführt: • Plaque-Test zum Nachweis von SE-spezifischen IgM- und IgG-PBZ, • Rosettentest.
Aus den Werten wird deutlich, daß die Verbindungen der allgemeinen Formel I einen gut nachweisbaren Effekt auf die Effektor-T-Lymphozyten-abhängige verzögerte Uberempfindlichkeit haben. Kontaktdermatitis-Werte ab 120 (≙ 20 % Steigerung gegenüber der Kontrolle) bzw. unter 80 werden als Nachweis eines stimulatorischen bzw. suppressorischen Effektes angesehen. Antikörpertiter-Differenzen von >+1 bzw. <-1 verdeutlichen den stimulatorischen bzw. suppressorischen Effekt der Substanzen auf die humorale Immunantwort. 2. Untersuchungen zur immunstimulierenden Wirkung • 2.1 Plaque-Test zum Nachweis von SE-spezifischen IgM- und IgG-PBZ Zur Prüfung immunstimulierender Effekte wurde u. a. auch der Einfluß von Verbindungen der allgemeinen Formel I auf die humorale Immunantwort an Mäusen des Inzuchtstammes CBA und mittels Hämolyse-Plaque-Test (HPT) untersucht. Diese Technik erlaubt die quantitative und getrennte Erfassung IgM- und IgG-Antikörper produzierender Zellen (= Plaque bildende Zellen; PBZ). Die Immunisierung mit Schaferythrozyten (SE) erfolgte am Tag 0, die Substanzapplikation (Tagesdosis 1.10^-5 mol/kg Körpermasse; peroral) an den Tagen -1 bis +3 (zur Erfassung der IgM-PBZ) bzw. an den Tagen +1 bis +5 (zur Erfassung der IgG-PBZ). • 2.2 Ergebnisse: Durch tägliche und über 5 Tage gehende Gabe von 2,0 mg der Verbindung gemäß Beispiel 1 pro kg Körpermasse konnte die Zahl der IgM-PBZ auf einen Durchschnittswert von 352 % im Vergleich zur Kontrolle (100 %) gesteigert werden. Die gleiche Form der Behandlung führte zu einer Erhöhung der IgG-PBZ auf 497 % (Kontrolle: 100 %). In beiden Fällen erwies sich die Differenz zur Kontrolle im t-Test mit p < 0,001 als signifikant. […]

SMILES	Kontaktdermatitis (Kontrolle: 100) 24-Stunden-Reaktion [1]	Kontaktdermatitis (Kontrolle: 100) 48-Stunden-Reaktion [1]	SE-spezifischer rosettenbildender Zellen [2]
COc1cc2[nH]c(=O)n(CCS)c(=O)c2cc1OC [Beispiel 3, 3-(2-Mercaptoethyl)-6,7-dimethoxychinazolin-2,4(1H,3H)-dion]	100%		
O=c1[nH]c2ccc(Br)cc2c(=O)n1CCS [Beispiel 5, 6-Brom-3-(2-mercaptoethyl)-chinazolin-2,4(1H,3H)-dion]	150%	120%	
O=c1[nH]c2ccccc2c(=O)n1CCCS [Beispiel 6, 3-(3-Mercaptopropyl)-chinazolin-2,4(1H,3H)-dion]	70%	40%	signifikante Förderung
CC(S)Cn1c(=O)[nH]c2ccccc2c1=O (centres unmarked) [Beispiel 7, 3-(2-Mercaptopropyl)-chinazolin-2,4(1H,3H)-dion]	230%		
O=c1[nH]c2ccc(Cl)cc2c(=O)n1CCCS [Beispiel 8, 6-Chlor-3-(3-mercaptopropyl)-chinazolin-2,4(1H,3H)-dion]	100%	115%	
Cc1ccc2[nH]c(=O)n(CCCS)c(=O)c2c1 [Beispiel 12, 6-Methyl-3-(3-mercaptopropyl)-chinazolin-2,4(1H,3H)-dion]	120%	130%	
O=c1[nH]c2ccc(Cl)cc2c(=O)n1CCS [Beispiel 13, 6-Chlor-3-(2-mercaptoethyl)-chinazolin-2,4(1H,3H)-dion]	120%	130%	
Cc1ccc2[nH]c(=O)n(CCS)c(=O)c2c1 [Beispiel 14a, 6-Methyl-3-(2-mercaptoethyl)-chinazolin-2,4(1H,3H)-dion]	60%	60%	
O=c1[nH]c2ccc(Br)cc2c(=O)n1CCCS [Beispiel 14b, 6-Brom-3-(3-mercaptopropyl)-chinazolin-2 4(1H 3H)-dion]	105%	100%	
O=c1[nH]c2ccc(F)cc2c(=O)n1CCS [Beispiel 14c, 6-Fluor-3-(2-mercaptoethyl)-chinazolin-2,4(1H 3H)-dion]	90%	105%	
O=c1[nH]c2ccc(F)cc2c(=O)n1CCCS [Beispiel 14d, 6-Fluor-3-(3-mercaptopropyl)-chinazolin-2,4(1H,3H)-dion]	100%	150%	
COc1cc2[nH]c(=O)n(CC(C)S)c(=O)c2cc1OC (centres unmarked) [Beispiel 14e, 6,7-Dimethoxy-3-(2-mercaptopropyl)-chinazolin-2,4(1H,3H)-dion]	100%		signifikante Förderung
